The source of these data is article PMC5594043, “CYP79 P450 monooxygenases in gymnosperms: CYP79A118 is associated with the formation of taxiphyllin in Taxus baccata” (Plant Molecular Biology, 2017).

For this test, the target named is T1, CYP79A118 full-length (CYP79A118-M1) (Taxus baccata, UniProt A0A288W866).
T1 construct: full-length ORF; yeast WAT11 microsomes with Arabidopsis CPR1; pESC-Leu2d
The format is biochemical. To be noted: 1 mM substrate; NADPH 1 mM; Arabidopsis CPR1 in microsomes; 75 mM sodium phosphate pH 7.0; 25 °C; product indole-3-acetaldoxime.

Turning to `N[C@@H](Cc1c[nH]c2ccccc12)C(=O)O` [Trp, L-tryptophan], the “LC-MS/MS of aldoxime product, yeast microsomes” value is reported as “the full-length protein as well as the truncated version showed enzymatic activity with the aromatic”.
